Where “and” joins values, the source holds several entries; their conditions need not be identical. Equal values may be shown once.
Tests used:
overactive bladder = conditions: OAB patients; cited from earlier work
[1] = Side-effects in laboratory test animals; format: in vivo; conditions: several multiples of the minimum effective dose
NK1 receptors = molecular target: T1, NK1 receptors (Homo sapiens, UniProt P25103); assay: Inhibition of binding of a tritiated derivative of SP in a tissue preparation selective for NK1 receptors; conditions: read-out: concentration at which 50% inhibition of binding of SP was achieved
T1 construct: from tissue; host or cells: unnamed tissue preparation selective for NK1 receptors
T1 sequence (P25103 whole entry): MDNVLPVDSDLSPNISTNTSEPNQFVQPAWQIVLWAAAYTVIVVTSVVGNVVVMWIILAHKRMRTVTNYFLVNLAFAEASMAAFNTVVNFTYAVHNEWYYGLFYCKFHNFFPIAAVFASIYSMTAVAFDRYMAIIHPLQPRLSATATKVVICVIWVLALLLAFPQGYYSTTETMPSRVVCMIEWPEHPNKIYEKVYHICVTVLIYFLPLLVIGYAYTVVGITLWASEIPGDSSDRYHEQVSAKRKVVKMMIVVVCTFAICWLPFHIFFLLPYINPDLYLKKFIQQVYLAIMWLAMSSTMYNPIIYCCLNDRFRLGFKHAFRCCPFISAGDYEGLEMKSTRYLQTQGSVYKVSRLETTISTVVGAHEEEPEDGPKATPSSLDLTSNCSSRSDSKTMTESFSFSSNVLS
Excerpt: The specificity of inhibition by the Compound was shown by inhibiting the binding of tritiated NKA at the NK2 receptor compared to inhibition of binding of a tritiated derivative of SP in a tissue preparation selective for NK1 receptors.

BANK-induced dyspnea = BANK-induced dyspnea in conscious guinea pigs; format: in vivo, guinea pig; conditions: for ED50: Cavia porcellus
Procedure: Dyspnea (labored abdominal breathing) was induced in conscious guinea pigs by aerosol administration of BANK, as previously described (Kusner, et al. Euro. J. Pharmacol. 210:299-306,1992). All animals were pretreated with atropine, 10 mg/kg ip 45 minutes; indomethacin, 10 mg/kg ip 30 minutes; propranolol, 5 mg/kg ip 30 minutes; and thiorphan, 1 mg/ml aerosol for 5 minutes duration, starting 15 minutes prior to challenge in order to block muscarinic receptors, cyclooxygenase, beta-adrenergic receptors, and neutral endopeptidase (EC 3.4.24.11), respectively. Animals were pretreated with Compound or vehicle at appropriate times before challenge with aerosolized BANK for 780 seconds. BANK was administered to six animals simultaneously by being aerosolized with a DeVilbiss ultrasonic nebulizer into an air stream flowing into a Plexiglas chamber at a rate of 2 liter/min. The time required for dyspnea to occur was recorded for each animal. […] Vehicle pretreated control animals were included in each experiment. Results are reported in % protection values where: [formula]

[2] = molecular target: T2, NK2 receptor, human bronchus (Homo sapiens, UniProt P21452); assay: NK2 receptor antagonism in human bronchus; conditions: read-out: -log molar KB (converted)
T2 construct: from tissue; host or cells: human bronchus
T2 sequence (P21452 1-398): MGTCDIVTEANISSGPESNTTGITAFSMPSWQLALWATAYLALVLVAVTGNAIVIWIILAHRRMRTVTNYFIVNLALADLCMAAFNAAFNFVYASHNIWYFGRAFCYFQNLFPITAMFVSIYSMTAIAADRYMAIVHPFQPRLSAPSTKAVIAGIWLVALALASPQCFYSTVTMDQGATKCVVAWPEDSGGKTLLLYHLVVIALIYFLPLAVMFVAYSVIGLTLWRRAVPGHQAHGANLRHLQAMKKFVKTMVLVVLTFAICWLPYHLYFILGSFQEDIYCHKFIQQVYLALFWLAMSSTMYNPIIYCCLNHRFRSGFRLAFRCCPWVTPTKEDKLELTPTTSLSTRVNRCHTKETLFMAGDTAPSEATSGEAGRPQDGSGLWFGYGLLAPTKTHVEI

[3] = molecular target: T3, NK2 receptor of rabbit pulmonary artery (Oryctolagus cuniculus, UniProt P79218); assay: Inhibition of NK2 receptor-mediated contraction of rabbit pulmonary artery (agonist BANK); conditions: endothelium removed, read-out: -log molar KB (converted)
T3 construct: The left and right branches of the pulmonary artery were obtained from each animal; from tissue; host or cells: rabbit pulmonary artery rings, endothelium removed
T3 sequence (P79218 1-384): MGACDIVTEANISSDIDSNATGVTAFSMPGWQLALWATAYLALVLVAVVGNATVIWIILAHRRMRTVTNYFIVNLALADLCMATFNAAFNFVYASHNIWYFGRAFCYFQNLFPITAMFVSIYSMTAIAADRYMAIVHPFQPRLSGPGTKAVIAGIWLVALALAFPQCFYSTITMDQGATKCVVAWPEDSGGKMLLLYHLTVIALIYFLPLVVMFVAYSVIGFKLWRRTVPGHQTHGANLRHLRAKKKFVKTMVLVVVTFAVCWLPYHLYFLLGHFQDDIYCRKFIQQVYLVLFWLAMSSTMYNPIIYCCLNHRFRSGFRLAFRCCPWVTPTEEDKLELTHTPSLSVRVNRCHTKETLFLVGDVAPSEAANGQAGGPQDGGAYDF
Procedure: Inhibition of NK2 Receptor-Mediated Contraction of Rabbit Pulmonary Artery:
Male New Zealand white rabbits were administered a lethal injection of Nembutal, (60 mg/kg) into a cannulated ear vein. Heparin, 0.0025 mL/kg of a 1000 U/ml solution, was injected into the ear vein prior to Nembutal in order to decrease blood coagulation. The left and right branches of the pulmonary artery were obtained from each animal. The segments, with or without endothelium, were suspended as rings in water-jacketed tissue baths maintained at 37° C. containing physiological salt solution of the following composition (mM): NaCl (119.0); KCl (4.6); CaCl2 (1.8); MgCl2 (0.5); NaH2PO4 (1.0); NaHCO3 (25.0); glucose (11.0); and gassed continuously with 95% O2-5% CO2. […] Changes in tension were measured on a Grass polygraph via Grass FT-03 force transducers.
(§1) To study NK2-mediated contraction, the vascular endothelium was removed and beta-Ala^8-NKA (“BANK”) was used as agonist. […] The response to each concentration of ASMSP was expressed as a percentage of the total relaxation induced by papaverine. […] Apparent KB values for the compound were calculated using the standard equation: KB=[antagonist]/(dose ratio−1), where dose ratio was equal to antilog [(−log molar EC50 without antagonist)−(−log molar EC50 with antagonist)]. The resulting KB values are expressed as −log molar KB.

human NK2 receptor = molecular target: T4, human NK2 receptor (Homo sapiens, UniProt P21452); assay: Neurokinin receptor binding assay, 3H-NKA binding to MEL cell membranes; conditions: tritiated NKA; read-out: Ki, concentration at which 50% inhibition of binding of NKA was achieved
T4 construct: expressed in transfected cells; host or cells: Mouse Erythroleukemia (MEL) cells, membrane preparation (MELM)
T4 sequence (P21452 1-398): T2 sequence (P21452 1-398)

[4] = tested on: BANK-induced bladder contraction; assay: In vivo bladder contraction inhibition in rats (BANK-induced); set-up: species or system rat
NK1 receptor = assay: NK1 receptor-mediated relaxation of rabbit pulmonary artery induced by ASMSP
Procedure: Male New Zealand white rabbits were administered a lethal injection of Nembutal, (60 mg/kg) into a cannulated ear vein. Heparin, 0.0025 mL/kg of a 1000 U/ml solution, was injected into the ear vein prior to Nembutal in order to decrease blood coagulation. The left and right branches of the pulmonary artery were obtained from each animal. The segments, with or without endothelium, were suspended as rings in water-jacketed tissue baths maintained at 37° C. containing physiological salt solution of the following composition (mM): NaCl (119.0); KCl (4.6); CaCl2 (1.8); MgCl2 (0.5); NaH2PO4 (1.0); NaHCO3 (25.0); glucose (11.0); and gassed continuously with 95% O2-5% CO2. Initial tension placed on each tissue was 2 gm, which was maintained throughout a 0.5 hour equilibration period. Changes in tension were measured on a Grass polygraph via Grass FT-03 force transducers.
as §1

[5] = tested on: BANK-induced bronchoconstriction; assay: Pulmonary mechanics in anesthetized guinea pigs, BANK-induced bronchoconstriction; format: in vivo, guinea pig

SMILES | adverse effects (primarily dry mouth), share of the patient population (overactive bladder) | untoward side-effects [1] | IC50 (NK1 receptors) | protection half-life against BANK-induced dyspnea (BANK-induced dyspnea; 2 mg/kg dose, duration of action studies) | ED50 (BANK-induced dyspnea; intravenously 30 min prior to challenge) | ED50 (BANK-induced dyspnea; oral administration 120 min before challenge) | Maximum efficacy (% protection) (BANK-induced dyspnea; intravenous, 0.3 μmol/kg) | Maximum efficacy (% protection) (BANK-induced dyspnea; oral dose of 3.0 μmol/kg) | Kb [2] | Kb [3] | Ki (human NK2 receptor) | maximum efficacy ([4]; […] (1.8 mg/kg) against intravenous BANK (3 nmol/kg)) | activity in bladder contraction test ([4]; intravenously and orally, 0.2 to 5 μmol/kg body weight) | Duration of action ([4]; oral 1.2 μmol/kg) | half-life of action ([4]; oral 1.2 μmol/kg) | maximum efficacy ([4]; oral, 5 μmol/kg (2.5 mg/kg)) | antagonism of relaxation induced by ASMSP (NK1 receptor; endothelium intact, phenylephrine-contracted) | selectivity, KB against NK1 receptor-mediated response versus NK2 receptor-mediated response (NK1 receptor; rabbit pulmonary artery) | rightward shift of the response curves for BANK ([5]; intravenously at 30 min before BANK) | rightward shift in the BANK-induced dose-response curve ([5]; oral 120 min before BANK)
CCN(CC)CC#CCOC(=O)C(O)(c1ccccc1)C1CCCCC1 (stereo not drawn) [oxybutinin] | approximately 78% |  |  |  |  |  |  |  |  |  |  |  |  |  |  |  |  |  |  | 
CN(C[C@@H](CCN1CCC(N2CCCNC2=O)CC1)c1ccc(Cl)c(Cl)c1)C(=O)c1ccccc1 [the Compound, (S)-N-[2-(3,4-dichlorophenyl)-4-[4-(2-oxoperhydropyrimidin-1-yl)piperidino]butyl]-N-methylbenzamide] |  | has not been found to show any indication of any untoward side-effects | 187 nM | 2.43 h | 0.13 µmol/kg and 0.07 mg/kg | 0.75 µmol/kg and 0.39 mg/kg | 95% | 100% | 2.4 nM | 0.891 nM | 1.25 nM | approximately 100% | active and selective | about 6 hr | ~3.5 h | about 80% | minor antagonism | 1,096 fold | ~196 fold | ~481 fold
Cc1ccc(O)c([C@H](CCN(C(C)C)C(C)C)c2ccccc2)c1 [tolterodine] | ~39% |  |  |  |  |  |  |  |  |  |  |  |  |  |  |  |  |  |  | 
